Like-named read-outs stand apart in the source and are kept apart here.
How the values were obtained:
[1] = test system: Beet Armyworm (Spodoptera exigua) ("BAW"), second instar larvae; assay: Bioassay on beet armyworm (BAW), 128-well diet tray assay; assay type: in vivo; conditions: for pest or weed control at 50 µg/cm2: Spodoptera exigua; for BAW rating: Table ABC, species BAW, C = not tested, D = no activity noticed
Summary of the method: (§1)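 Covered trays were held at 25° C. under a 14:10 light-dark cycle for five to seven days. Percent mortality was then scored in each well, and activity across eight wells was averaged.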

[2] = test system: Cabbage Looper (Trichoplusia ni) ("CL"), second instar larvae; assay: Bioassay on cabbage looper (CL), 128-well diet tray assay; assay type: in vivo; conditions: for pest or weed control at 50 µg/cm2: Trichoplusia ni; for CL rating: Table ABC, species CL, C = not tested, D = no activity noticed
Summary of the method: as §1

[3] = read-out: BAW (Biological Results, rating)
[4] = read-out: CL (Biological Results, rating)

| Compound | pest or weed control at 50 µg/cm2 ([1]; read-out: BAW rating) [%] | pest or weed control at 50 µg/cm2 ([2]; read-out: CL rating) [%] | pest or weed control at 50 µg/cm2 [1, 3] [%] | pest or weed control at 50 µg/cm2 [2, 4] [%] | also measured |
| --- | --- | --- | --- | --- | --- |
| CCOCc1ccc(C)cc1N1C(=O)CS/C1=N\C(=O)Nc1ccc(-c2ncn(-c3ccc(S(F)(F)(F)(F)F)cc3)n2)cc1C(F)(F)F [Compound J627, (Z)-1-(3-(2-(Ethoxymethyl)-5-methylphenyl)-4-oxothiazolidin-2-ylidene)-3-(4-(1-(4-(pentafluoro-λ^6-sulfaneyl)phenyl)-1H-1,2,4-triazol-3-yl)-2-(trifluoromethyl)phenyl)urea] | 50 to 100 | 50 to 100 | – | – | – |
| Cc1ccc(N2C(=O)CS/C2=N\C(=O)Nc2ccc(-c3ncn(-c4ccc(OC(F)(F)F)cc4)n3)cc2C)c(COCC(F)(F)F)c1 [Compound J448] | – | – | – | – | BAW rating [1]: A (50-100); CL rating [2]: A (50-100) |
| CCN(C(C)=O)c1ccc(C(C)C)c(N2C(=O)CS/C2=N\C(=O)Nc2ccc(-c3ncn(-c4ccc(OC(F)(F)F)cc4)n3)cc2C)c1 [Compound J200, (Z)-N-Ethyl-N-(4-isopropyl-3-(2-(((2-methyl-4-(1-(4-(trifluoromethoxy)phenyl)-1H-1,2,4-triazol-3-yl)phenyl)carbamoyl)imino)-4-oxothiazolidin-3-yl)phenyl)acetamide] | – | – | 50 to 100 | 50 to 100 | – |
| COC(C)c1ccc(C)cc1N1C(=O)CS/C1=N\C(=O)Nc1ccc(-c2nnc(-c3ccc(OC(F)(F)F)cc3)s2)cc1F (stereo not shown) [Compound J504, (Z)-1-(2-Fluoro-4-(5-(4-(trifluoromethoxy)phenyl)-1,3,4-thiadiazol-2-yl)phenyl)-3-(3-(2-(1-methoxyethyl)-5-methylphenyl)-4-oxothiazolidin-2-ylidene)urea] | 0 to 50 | 50 to 100 | – | – | – |
| CCCc1ccc(C)cc1N1C(=O)CS/C1=N\C(=O)Nc1ccc(-c2ncn(-c3ccc(OC(F)(F)F)cn3)n2)cc1F [Compound J272, (Z)-1-(2-Fluoro-4-(1-(5-(trifluoromethoxy)pyridin-2-yl)-1H-1,2,4-triazol-3-yl)phenyl)-3-(3-(5-methyl-2-propylphenyl)-4-oxothiazolidin-2-ylidene)urea] | – | – | 50 to 100 | 50 to 100 | – |
| COc1ccc(-n2cnc(-c3ccc(NC(=O)/N=C4\SCC(=O)N4c4cc(C)ccc4COCC(F)F)c(F)c3)n2)cc1 [Compound J757, (Z)-1-(3-(2-((2,2-Difluoroethoxy)methyl)-5-methylphenyl)-4-oxothiazolidin-2-ylidene)-3-(2-fluoro-4-(1-(4-methoxyphenyl)-1H-1,2,4-triazol-3-yl)phenyl)urea] | 50 to 100 | 50 to 100 | – | – | – |
| Cc1ccc(OCCC(F)(F)F)c(N2C(=O)CS/C2=N\C(=O)Nc2ccc(-c3ncn(-c4ccc(OC(F)(F)F)cc4)n3)cc2C)c1 [Compound J56, (Z)-1-(3-(5-Methyl-2-(3,3,3-trifluoropropoxy)phenyl)-4-oxothiazolidin-2-ylidene)-3-(2-methyl-4-(1-(4-(trifluoromethoxy)phenyl)-1H-1,2,4-triazol-3-yl)phenyl)urea] | – | – | 50 to 100 | 50 to 100 | – |
| Cc1ccc(OCC(F)(F)F)c(N2C(=O)CS/C2=N\C(=O)Nc2ccc(-c3ncn(-c4ccc(OC(F)(F)F)cc4)n3)cc2C)c1 [Compound J55, (Z)-1-(3-(5-Methyl-2-(2,2,2-trifluoroethoxy)phenyl)-4-oxothiazolidin-2-ylidene)-3-(2-methyl-4-(1-(4-(trifluoromethoxy)phenyl)-1H-1,2,4-triazol-3-yl)phenyl)urea] | – | – | 50 to 100 | 50 to 100 | – |
| Cc1ccc(OCCC(F)(F)F)c(N2C(=O)CS/C2=N\C(=O)Nc2ccc(-c3ncn(-c4ccc(S(=O)(=O)C(F)(F)F)cc4)n3)cc2C#N)c1 [Compound J402, (Z)-1-(2-cyano-4-(1-(4-((trifluoromethyl)sulfonyl)phenyl)-1H-1,2,4-triazol-3-yl)phenyl)-3-(3-(5-methyl-2-(3,3,3-trifluoropropoxy)phenyl)-4-oxothiazolidin-2-ylidene)urea] | 50 to 100 | 50 to 100 | – | – | – |
| Cc1ccc(COCC(F)(F)F)c(N2C(=O)CS/C2=N\C(=O)Nc2ccc(-n3cnc(-c4ccc(OC(F)(F)F)cc4)n3)cc2C)c1 [Compound J442, (Z)-1-(3-(5-Methyl-2-((2,2,2-trifluoroethoxy)methyl)phenyl)-4-oxothiazolidin-2-ylidene)-3-(2-methyl-4-(3-(4-(trifluoromethoxy)phenyl)-1H-1,2,4-triazol-1-yl)phenyl)urea] | 50 to 100 | 50 to 100 | – | – | – |
| Cc1ccc(COCC(F)(F)F)c(N2C(=O)CS/C2=N\C(=O)Nc2ccc(-c3ncn(-c4ccc(S(F)(F)(F)(F)F)cc4)n3)cc2C#N)c1 [Compound J569, (Z)-1-(2-Cyano-4-(1-(4-(pentafluoro-λ^6-sulfaneyl)phenyl)-1H-1,2,4-triazol-3-yl)phenyl)-3-(3-(5-methyl-2-((2,2,2-trifluoroethoxy)methyl)phenyl)-4-oxothiazolidin-2-ylidene)urea] | 50 to 100 | 50 to 100 | – | – | – |
| Cc1cc(-c2ncn(-c3ccc(OC(F)(F)F)cc3)n2)ccc1NC(=O)/N=C1\SCC(=O)N1c1c(COCC(F)(F)F)ccc(C)c1C [Compound J679] | – | – | – | – | BAW rating [1]: A (50-100); CL rating [2]: A (50-100) |
| CC(C)c1ccc(C#N)cc1N1C(=O)CS/C1=N\C(=O)Nc1ccc(-c2cn(-c3ccc(S(F)(F)(F)(F)F)cc3)cn2)cc1F [Compound J605, (Z)-1-(3-(5-Cyano-2-isopropylphenyl)-4-oxothiazolidin-2-ylidene)-3-(2-fluoro-4-(1-(4-(pentafluoro-λ^6-sulfaneyl)phenyl)-1H-imidazol-4-yl)phenyl)urea] | 50 to 100 | 50 to 100 | – | – | – |
| COC(C)c1ccc(C)cc1N1C(=O)CS/C1=N\C(=O)Nc1ccc(-c2ncn(-c3ccc(OC(F)(F)F)cc3)n2)cc1C (stereo not shown) [Compound J60, (Z)-1-(3-(2-(1-Methoxyethyl)-5-methylphenyl)-4-oxothiazolidin-2-ylidene)-3-(2-methyl-4-(1-(4-(trifluoromethoxy)phenyl)-1H-1,2,4-triazol-3-yl)phenyl)urea] | – | – | 50 to 100 | 50 to 100 | – |
| O=C(/N=C1\SCC(=O)N1c1cc(F)ccc1COCC(F)(F)F)Nc1ccc(-c2ncn(-c3ccc(S(=O)(=O)C(F)(F)F)cc3)n2)cc1F [Compound J670, (Z)-1-(3-(5-Fluoro-2-((2,2,2-trifluoroethoxy)methyl)phenyl)-4-oxothiazolidin-2-ylidene)-3-(2-fluoro-4-(1-(4-((trifluoromethyl)sulfonyl)phenyl)-1H-1,2,4-triazol-3-yl)phenyl)urea] | 50 to 100 | 50 to 100 | – | – | – |
| CC(C)c1cc(-c2ncn(-c3ccc(OC(F)(F)F)cc3)n2)ccc1NC(=O)/N=C1\SCC(=O)N1c1cc(N(C)C)ccc1C(C)C [Compound J101, (Z)-1-(3-(5-(Dimethylamino)-2-isopropylphenyl)-4-oxothiazolidin-2-ylidene)-3-(2-isopropyl-4-(1-(4-(trifluoromethoxy)phenyl)-1H-1,2,4-triazol-3-yl)phenyl)urea] | – | – | 50 to 100 | 50 to 100 | – |
| CC(C)c1ccc(N(C)C)cc1N1C(=O)CS/C1=N\C(=O)Nc1ccc(-c2ncn(-c3ccc(OC(F)(F)F)cn3)n2)cc1C#N [Compound J266, (Z)-1-(2-Cyano-4-(1-(5-(trifluoromethoxy)pyridin-2-yl)-1H-1,2,4-triazol-3-yl)phenyl)-3-(3-(5-(dimethylamino)-2-isopropylphenyl)-4-oxothiazolidin-2-ylidene)urea] | – | – | 50 to 100 | 50 to 100 | – |
| CCOCc1ccc(C)cc1N1C(=O)CS/C1=N\C(=O)Nc1ccc(-c2ncn(-c3cccc(C(F)(F)F)c3)n2)cc1F [Compound J723] | – | – | – | – | BAW rating [1]: A (50-100); CL rating [2]: A (50-100) |
| COc1cc(-c2ncn(-c3ccc(OC(F)(F)F)cc3)n2)ccc1NC(=O)/N=C1\SCC(=O)N1c1cc(N(C)C)ccc1OCCC(F)(F)F [Compound J109, (Z)-1-(3-(5-(Dimethylamino)-2-(3,3,3-trifluoropropoxy)phenyl)-4-oxothiazolidin-2-ylidene)-3-(2-methoxy-4-(1-(4-(trifluoromethoxy)phenyl)-1H-1,2,4-triazol-3-yl)phenyl)urea] | – | – | 50 to 100 | 50 to 100 | – |
| Cc1cc(-c2ncn(-c3ccc(OC(F)(F)C(F)(F)F)cc3)n2)ccc1NC(=O)/N=C1\SCC(=O)N1c1cccc(C)c1COCC(F)(F)F [Compound J682] | – | – | – | – | BAW rating [1]: A (50-100); CL rating [2]: A (50-100) |
| COCOc1cc(-c2ncn(-c3ccc(OC(F)(F)F)cc3)n2)ccc1NC(=O)/N=C1\SCC(=O)N1c1cc(C)ccc1COCC(F)(F)F [Compound J173, (Z)-1-(2-(Methoxymethoxy)-4-(1-(4-(trifluoromethoxy)phenyl)-1H-1,2,4-triazol-3-yl)phenyl)-3-(3-(5-methyl-2-((2,2,2-trifluoroethoxy)methyl)phenyl)-4-oxothiazolidin-2-ylidene)urea] | – | – | 50 to 100 | 50 to 100 | – |
| CC(C)c1ccc(N(C)C)cc1N1C(=O)CS/C1=N\C(=O)Nc1ccc(-c2ncn(-c3ccc(C(F)(F)F)cn3)n2)cc1F [Compound J336, (Z)-1-(3-(5-(Dimethylamino)-2-isopropylphenyl)-4-oxothiazolidin-2-ylidene)-3-(2-fluoro-4-(1-(5-(trifluoromethyl)pyridin-2-yl)-1H-1,2,4-triazol-3-yl)phenyl)urea] | – | – | 50 to 100 | 50 to 100 | – |
| COC(C)c1ccc(C)cc1N1C(=O)CS/C1=N\C(=O)Nc1ccc(-c2ncn(-c3ccc(OC(F)(F)F)cc3)n2)cc1C(C)=O (stereo not shown) [Compound J397, (Z)-1-(2-Acetyl-4-(1-(4-(trifluoromethoxy)phenyl)-1H-1,2,4-triazol-3-yl)phenyl)-3-(3-(2-(1-methoxyethyl)-5-methylphenyl)-4-oxothiazolidin-2-ylidene)urea] | 50 to 100 | 50 to 100 | – | – | – |

Source: US20230077362A1 (CORTEVA AGRISCIENCE LLC, priority 2019, published 2023)
